Experimental data: patent US6620822B1, “Fungicidal combinations of active substance” (priority 1999, dated 2003)

How the values were obtained:
Assay type in all cases: in vivo
Sphaerotheca fuliginea = test: Sphaerotheca test (cucumber)/protective; conditions: protective, single active compound, evaluation 10 days after inoculation
[1] = system: Erysiphe graminis f.sp. hordei; test: Erysiphe test (barley)/curative; conditions: curative, single active compound, evaluation 7 days after inoculation
Phytophthora infestans = conditions: tomato, protective, single active compound, application rate 5 g/ha, evaluation 3 days after inoculation

**Q.** Which results are given for `Fc1ccc(Oc2ccnc3cc(Cl)cc(Cl)c23)cc1` [(I), 5,7-dichloro-4-(4-fluoro-phenoxy)-quinoline]?
**A.** Efficacy in % (Sphaerotheca fuliginea; application rate 5 g/ha): 57%; Efficacy in % (Sphaerotheca fuliginea; application rate 10 g/ha): 63%; Efficacy in % ([1]; application rate 6.25 g/ha): 43%; Efficacy in % ([1]; application rate 25 g/ha): 57%; Efficacy in % (Phytophthora infestans): 4%

**Q.** Which Efficacy in % (Sphaerotheca fuliginea; application rate 50 g/ha) does the source give for `Cc1ccc(N(SC(F)(Cl)Cl)S(=O)(=O)N(C)C)cc1` [(III), N-dichloro-fluoro-methylthio-N′,N′-dimethyl-N-p-tolylsulfamide] here?
**A.** 0%

**Q.** Which results are given for `CC(C)(C)C(O)C(Oc1ccc(Cl)cc1)n1cncn1` (stereo not drawn) [(IIa), 1-(4-chloro-phenoxy)-3,3-dimethyl-1-(1,2,4-triazol-1-yl)-butan-2-ol]?
**A.** Efficacy in % (Sphaerotheca fuliginea; application rate 5 g/ha): 63%; Efficacy in % ([1]; application rate 25 g/ha): 93%

**Q.** With `CC(C)(C)C(O)C(Oc1ccc(-c2ccccc2)cc1)n1cncn1` (stereo not drawn) [(IIb), 1-(4-phenyl-phenoxy)-3,3-dimethyl-1-(1,2,4-triazol-1-yl)-butan-2-ol] as the compound, how does the Efficacy in % (Sphaerotheca fuliginea; application rate 10 g/ha) read?
**A.** 27%

**Q.** `CC1CNC(=S)[S][Zn][S]C(=S)N1` (stereo not drawn) [(IV), zinc propylene-1,2-bis-(dithiocarbamidate)] was tested. Which Efficacy in % (Sphaerotheca fuliginea; application rate 50 g/ha) did it give?
**A.** 0%

**Q.** How did the Efficacy in % (Sphaerotheca fuliginea; application rate 10 g/ha) turn out when `CC1(C(=O)Nc2ccc(O)c(Cl)c2Cl)CCCCC1` [(V)] was run?
**A.** 0%

**Q.** `Cc1ccc(C(C)NC(=O)C(NC(=O)OC(C)C)C(C)C)cc1` (stereo not drawn) [(VI)] was tested. Which Efficacy in % (Sphaerotheca fuliginea; application rate 10 g/ha) did it give?
**A.** 0%
